From PubChem BioAssay (NCI)
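Tested at 5 concentrations; 48 h exposure; 96-well plates; endpoints linearly interpolated, else capped at highest concentration. GI50 is the concentration that inhibits growth by half. Definition used: TGI = concentration required for complete inhibition of growth.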

Assays:
Assay in all cases: NCI anticancer screen, dose series, 48 h
SF-539 CNS = test system: SF-539 CNS
LOX IMVI melanoma = test system: LOX IMVI melanoma
NCI-H460 lung = test system: NCI-H460 lung
MOLT-4 leukemia = test system: MOLT-4 leukemia
A498 renal = test system: A498 renal
COLO 205 colon = test system: COLO 205 colon
SK-OV-3 ovarian = test system: SK-OV-3 ovarian
SK-MEL-28 melanoma = test system: SK-MEL-28 melanoma
PC-3 prostate = test system: PC-3 prostate
T-47D breast = test system: T-47D breast

| Structure (SMILES) | TGI (SF-539 CNS) [µM] | TGI (LOX IMVI melanoma) [µM] | TGI (NCI-H460 lung) [µM] | TGI (MOLT-4 leukemia) [µM] | TGI (A498 renal) [µM] | TGI (COLO 205 colon) [µM] | TGI (SK-OV-3 ovarian) [µM] | TGI (SK-MEL-28 melanoma) [µM] | GI50 (SF-539 CNS) [nM] | GI50 (LOX IMVI melanoma) [nM] | GI50 (NCI-H460 lung) [nM] | GI50 (MOLT-4 leukemia) [nM] | GI50 (A498 renal) [µM] | GI50 (COLO 205 colon) [µM] | GI50 (SK-OV-3 ovarian) [µM] | GI50 (SK-MEL-28 melanoma) [µM] | GI50 (PC-3 prostate) [nM] | TGI (PC-3 prostate) [µM] | GI50 (T-47D breast) [µM] | TGI (T-47D breast) [µM] |
| --- | --- | --- | --- | --- | --- | --- | --- | --- | --- | --- | --- | --- | --- | --- | --- | --- | --- | --- | --- | --- |
| CCc1cccc(C(C)C)c1C1C(=O)C(=O)N(c2nc3ccccc3s2)C(=O)C1=O | > 100 | > 100 | > 100 | > 100 | > 100 | > 100 | > 100 | > 100 |  |  |  |  |  |  |  |  |  |  |  |  |
| Cc1nn(C(=O)CC(=O)Nc2ccccc2Cl)c(C)c1N=Nc1ccccc1Cl | > 100 | > 100 | > 100 | > 100 | > 100 | > 100 | > 100 | > 100 |  |  |  |  |  |  |  |  |  |  |  |  |
| CCCCCC1C2C(=O)NC(=O)C1C(=O)NC2=O (stereo not drawn) | > 100 | > 100 | > 100 | > 100 | > 100 | > 100 | > 100 | > 100 |  |  |  |  |  |  |  |  |  |  |  |  |
| Nc1n[nH]c(=O)c2c1c(Br)cn2C1OC(CO)C(O)C1O (stereo not drawn) | 25.8 | 15.3 | > 100 | 9.3 | > 71.2 | 28.1 | > 100 | 26.6 |  |  |  |  |  |  |  |  |  |  |  |  |
| NCCN.O=N[O-].O=N[O-].O=N[O-].O=N[O-].[Co+3].[K+] | > 100 | > 100 | > 100 | > 100 | > 100 | > 100 | > 100 | > 100 | > 100000 | > 100000 | > 100000 | > 100000 | > 100 | > 100 | > 100 | > 100 |  |  |  |  |
| CC(=O)NC1C(=O)CC(c2ccccc2)N(C)C1c1ccccc1 (stereo not drawn) | > 100 | > 100 | > 100 | > 100 | > 100 | > 100 | > 100 | > 100 |  |  |  |  |  |  |  |  |  |  |  |  |
| O=c1c2ccccc2nc(-c2ccccc2Cl)n1NC1OC(CO)C(O)C(O)C1O (stereo not drawn) | > 100 |  | > 100 | > 100 | > 100 | > 100 | > 100 | > 100 |  |  |  |  |  |  |  |  |  |  |  |  |
| CN(C)CCCn1c2c(c3ccc([N+](=O)[O-])cc3c1=O)C(=O)c1ccccc1-2 |  | 13.3 | 19.4 | > 100 |  | 87.5 | > 100 | > 100 |  | 2870 | 2690 | 696 |  | 23.9 | 28.1 | > 100 | 6060 | > 100 | 24.1 | > 100 |
| Cc1cn2cc(-c3ccncc3)nc2s1 | > 100 | > 84.4 | > 100 | > 100 | > 100 | > 100 | > 100 | > 100 |  |  |  |  |  |  |  |  |  |  |  |  |
| COCC(O)CN1C(N)=NC(O)C1O (stereo not drawn) | > 100 | > 100 | > 100 |  |  | > 100 |  | > 100 |  |  |  |  |  |  |  |  |  |  |  |  |
| Nc1cc2[nH]c(=O)c3cc(Cl)ccc3c2cc1Cl | 25.8 | 53.6 | 18.8 | > 100 |  | > 100 | 15.8 | > 100 |  |  |  |  |  |  |  |  |  |  |  | > 100 |
| CC/C(=C(\c1ccccc1)c1ccc(OCC[N+](C)(C)C)cc1)c1ccccc1 | 40.6 | 27.7 | 37.4 | 36.4 | 40.6 | 20.4 | 34.5 | 22.2 |  |  |  |  |  |  |  |  |  |  |  |  |
| Cc1cc(N2CCOCC2)nc(N(CCNc2ccnc3cc(Cl)ccc23)Cc2cccs2)n1 | 3.32 | 3.18 |  | 5.93 |  | 3.25 |  | 3.7 | 1810 | 1720 |  | 2580 |  | 1.62 |  | 1.76 | 1800 | 4.84 | 1.84 | 4.4 |
| CC(=O)/C=C\C(=O)NNS(=O)(=O)c1ccc(C)cc1 | > 100 | > 100 | > 100 | > 100 | > 100 | > 100 | > 100 | > 100 |  |  |  |  |  |  |  |  |  |  |  |  |
| COc1cc(/C=C/C(=O)C(C)(C)C)cc(OC)c1OC | > 100 | 44 | 67.4 | > 100 |  | > 100 | > 100 | > 100 |  |  |  |  |  |  |  |  |  |  |  |  |
| COc1ccc(/C(C)=C(\c2ccc(Cl)cc2)c2ccc(OCCN3CCCCC3)cc2)cc1F | 4.67 | 4.64 | 5.38 | 11.3 |  | 5.25 | > 16.7 | 5.3 | 2420 | 2420 | 2590 | 3400 |  | 1.75 | 5.92 | 2.67 | 2670 | 7.47 | 4.25 | 14.5 |
| O=C(Cc1nc2ccccc2s1)C(=O)Nc1ccccc1C(F)(F)F | > 100 | > 100 | > 100 | > 100 | > 100 | > 100 | > 100 | > 100 |  |  |  |  |  |  |  |  |  |  |  |  |

| Structure (SMILES) | TGI (SF-539 CNS) [µM] | TGI (LOX IMVI melanoma) [µM] | TGI (NCI-H460 lung) [µM] | TGI (MOLT-4 leukemia) [µM] | TGI (A498 renal) [µM] | TGI (COLO 205 colon) [µM] | TGI (SK-OV-3 ovarian) [µM] | TGI (SK-MEL-28 melanoma) [µM] | GI50 (SF-539 CNS) [nM] | GI50 (LOX IMVI melanoma) [nM] | GI50 (NCI-H460 lung) [nM] | GI50 (MOLT-4 leukemia) [nM] | GI50 (A498 renal) [µM] | GI50 (COLO 205 colon) [µM] | GI50 (SK-OV-3 ovarian) [µM] | GI50 (SK-MEL-28 melanoma) [µM] | GI50 (PC-3 prostate) [nM] | TGI (PC-3 prostate) [µM] | GI50 (T-47D breast) [µM] | TGI (T-47D breast) [µM] |
| --- | --- | --- | --- | --- | --- | --- | --- | --- | --- | --- | --- | --- | --- | --- | --- | --- | --- | --- | --- | --- |
| O=C(/C=C\c1ccc(Cl)c(Cl)c1)c1ccccc1 | 29.6 | 4.48 | 32.9 | 40.3 | 25.2 | 29.7 | 29.8 | 27.3 | 15300 | 2070 | 15900 | 5360 | 12.4 | 13.6 | 14.1 | 13.9 | 5930 | 20.7 |  |  |
| COC(=O)[C@@H](C)C[C@H](Cc1ccccc1)NC(=O)c1cccc([C@@H](C[C@H](C(C)C)N(C)C(=O)[C@@H](NC(=O)[C@H]2CCCCN2C)C(C)C)OC(C)=O)n1 | 0.00795 | > 16.7 | > 16.7 | > 16.7 |  |  | > 16.7 |  | 2.75 | 4.95 | < 1.67 | 8.15 |  |  | 0.00235 |  | < 1.67 | > 16.7 |  |  |
| O=C1OC2C(O)COC2(OCc2c[nH]c3ccccc23)C1O (stereo not drawn) (tested in a mixture with another compound) | > 100 | > 100 | > 100 | > 100 | > 100 | > 100 | > 100 |  |  |  |  |  |  |  |  |  |  |  |  |  |
| Cc1nc2c(=O)n(C)c(=O)nc-2n(-c2ccc(Cl)cc2)c1C | > 100 |  | > 100 |  | > 100 | > 100 | > 100 | > 100 |  |  |  |  |  |  |  |  |  |  |  |  |
| O=[N+]([O-])c1ccc(-c2ccc(C3=Nn4c(nnc4-c4ccc(Cl)cc4)SC3)o2)cc1 | > 100 | > 100 | > 100 | > 100 | > 100 | > 100 | > 100 | > 100 |  |  |  |  |  |  |  |  |  |  |  |  |
| O=C1c2ccccc2CC1C1(O)C(=O)Nc2c(Cl)cc(Cl)cc21 (stereo not drawn) |  | > 100 | > 100 | > 100 |  | > 100 | > 100 | > 100 |  |  |  |  |  |  |  |  |  |  |  |  |
| S=C(N/N=C/c1ccccc1)NC1CC(c2ccccc2)Oc2ccccc21 (stereo not drawn) | > 100 | > 100 | > 100 |  |  | > 100 | > 100 | > 100 |  |  |  |  |  |  |  |  |  |  |  |  |
| O=S(O)CCCSSCCCCSSCCCS(=O)O | > 100 | > 100 | > 100 | > 100 | > 100 | > 100 | > 100 | > 100 |  |  |  |  |  |  |  |  |  |  |  |  |
| CC1CCCC2(O1)OC1CC(=O)OC1C1=C2C(=O)c2ccccc2C1=O (stereo not drawn) | 19.9 | 9.29 | 67.2 | 4.09 | 33.8 | 5.19 | 30 | 4.75 |  |  |  |  |  |  |  |  |  |  |  |  |
| CC(=O)OC12CCCCC1C1(CCCC1)NC2=O (stereo not drawn) | > 100 | > 100 | > 100 | > 100 | > 100 |  | > 100 | > 100 |  |  |  |  |  |  |  |  |  |  |  |  |
| CC(=O)NC(Cc1ccccc1)C(=S)N1CCCC1 (stereo not drawn) | > 100 | > 100 | > 100 | > 100 | > 100 | > 100 | > 100 | > 100 |  |  |  |  |  |  |  |  |  |  |  |  |
| CCN(CC)CC(C(=O)Nc1c(C)cccc1C)/C(C)=N/NC(N)=S (stereo not drawn) | > 100 | > 100 | > 100 | > 100 | > 100 | > 100 | > 100 | > 100 |  |  |  |  |  |  |  |  |  |  |  |  |
| N#Cc1c(-c2ccc(Cl)cc2)n([O-])c2ccccc2[n+]1=O | 36 | 20.3 | 42.8 | 4.77 |  | 54.4 | 72.3 | > 100 | 17900 | 5720 | 18500 | 2310 |  | 23 | 24.8 | 44.8 | 3260 | 13 | 6.47 | 25.8 |
| O=c1[nH]c2cccccc-2c1-c1nc2ccccc2[nH]1 | 54.3 | > 100 |  |  |  | > 100 | 51.2 | 70.5 |  |  |  |  |  |  |  |  |  |  |  |  |
| N#CC1=C(N)Oc2c(ccc3ccccc23)C1c1ccccc1Cl (stereo not drawn) | 0.792 | 12.1 | 1.34 | 17.8 | 0.496 | 12.9 | 43.3 | 22.9 | 233 | 479 | 335 | 447 | 0.0845 | 0.362 | 0.628 | 1.92 | 317 | 16.2 |  |  |
| COC(=O)c1c(OC(=O)c2ccccc2)noc1CC(=O)OC1C=CCCC1 (stereo not drawn) | > 100 |  | > 100 | > 100 | > 100 | > 100 | > 100 | > 100 |  |  |  |  |  |  |  |  |  |  |  |  |
